≈ marks a conversion by molar mass, not a printed value.
How the values were obtained:
physchem = conditions: FaSSIF
Description: Thermodynamic solubility in FaSSIF at 1 mg incubated for 24 hrs by UPLC-MS/MS analysis

[1] = Unbound fraction in BALB/c mouse plasma at 3 mg/kg, po and 1 mg/kg, iv measured upto 24 hrs; format: ADME, organism-based
[2] = Oral bioavailability in BALB/c mouse at 3 mg/kg measured upto 24 hrs; format: ADME, organism-based; conditions: in vivo
[3] = Toxicity in BALB/c nude mouse xenografted with human MOLM16 cells assessed as change in body weight at 0.3 to 3 mg/kg administered twice a day for 17 days; format: organism-based; conditions: in vivo, 408 h, dose 0.3-3 mg/kg, time 17 day
[4] = target: Receptor-interacting serine/threonine-protein kinase 3 (Homo sapiens, UniProt Q9Y572); assay: Inhibition of RIPK3 in human MOLM16 cells; format: cell-based
[5] = target: T1, Eukaryotic translation initiation factor 2-alpha kinase 3 (Homo sapiens, UniProt Q9NZJ5); assay: Activation of PERK in HEK293 cells transfected with ATF4 response element preincubated for 30 mins followed by tunicamycin addition and measured after 6 hrs by One-Glo reagent based plate reader assay; format: cell-based
T1 sequence (Q9NZJ5 whole entry): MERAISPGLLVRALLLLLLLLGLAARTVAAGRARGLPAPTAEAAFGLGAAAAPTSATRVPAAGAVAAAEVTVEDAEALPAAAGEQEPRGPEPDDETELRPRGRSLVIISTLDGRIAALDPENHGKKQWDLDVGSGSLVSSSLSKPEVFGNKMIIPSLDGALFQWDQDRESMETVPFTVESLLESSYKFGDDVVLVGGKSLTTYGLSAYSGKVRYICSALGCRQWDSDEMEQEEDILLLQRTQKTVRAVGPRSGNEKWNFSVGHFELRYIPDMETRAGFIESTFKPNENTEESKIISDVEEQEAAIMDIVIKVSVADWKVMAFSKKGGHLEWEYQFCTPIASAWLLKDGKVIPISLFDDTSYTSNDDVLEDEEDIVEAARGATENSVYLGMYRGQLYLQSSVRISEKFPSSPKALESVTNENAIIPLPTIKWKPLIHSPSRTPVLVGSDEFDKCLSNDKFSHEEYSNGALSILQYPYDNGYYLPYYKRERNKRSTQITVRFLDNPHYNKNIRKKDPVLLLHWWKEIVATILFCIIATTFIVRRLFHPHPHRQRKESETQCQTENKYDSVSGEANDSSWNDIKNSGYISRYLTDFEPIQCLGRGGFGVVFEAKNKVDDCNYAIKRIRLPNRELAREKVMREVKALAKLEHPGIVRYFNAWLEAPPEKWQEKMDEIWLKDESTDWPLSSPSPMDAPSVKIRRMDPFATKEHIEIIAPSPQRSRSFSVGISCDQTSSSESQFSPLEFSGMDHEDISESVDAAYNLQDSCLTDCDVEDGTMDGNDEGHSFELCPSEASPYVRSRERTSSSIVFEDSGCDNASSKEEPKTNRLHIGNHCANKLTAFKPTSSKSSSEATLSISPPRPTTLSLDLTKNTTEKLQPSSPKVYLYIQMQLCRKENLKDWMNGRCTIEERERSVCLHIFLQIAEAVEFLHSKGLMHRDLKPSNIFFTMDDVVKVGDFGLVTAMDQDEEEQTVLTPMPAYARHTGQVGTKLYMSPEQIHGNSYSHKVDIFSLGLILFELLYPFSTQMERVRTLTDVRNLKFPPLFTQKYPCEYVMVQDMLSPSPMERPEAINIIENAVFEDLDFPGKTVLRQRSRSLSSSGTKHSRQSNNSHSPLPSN

[6] = Cmax in Sprague-Dawley rat at 3 mg/kg, po measured upto 24 hrs; format: ADME, organism-based; conditions: in vivo
[7] = Unbound volume of distribution at steady state in Sprague-Dawley rat at 1 mg/kg, iv measured upto 24 hrs; format: ADME, organism-based; conditions: in vivo
[8] = Apparent permeability across apical to basolateral in human Caco-2 cells at 5 uM measured after 120 mins by UPLC-MS/MS analysis
[9] = Half-life in BALB/c mouse at 3 mg/kg, po and 1 mg/kg, iv measured upto 24 hrs; format: ADME, organism-based; conditions: in vivo
[10] = Volume of distribution at steady state in BALB/c mouse at 3 mg/kg, po and 1 mg/kg, iv measured upto 24 hrs; format: ADME, organism-based; conditions: in vivo
HT-1080 [11] = assay: Antitumor activity against human HT-1080 cells xenografted in BALB/c nude mouse assessed as mean tumor growth inhibition at 3 mg/kg administered twice a day for 14 days; format: functional; conditions: HT-1080, 336 h, time 14 day, read-out: TGI
[12] = target: Mitogen-activated protein kinase kinase kinase 20 (Homo sapiens, UniProt Q9NYL2); assay: Inhibition of ZAK in human MOLM16 cells; format: cell-based
[13] = Unbound clearance in BALB/c mouse plasma at 3 mg/kg, po and 1 mg/kg, iv measured upto 24 hrs; format: ADME, organism-based; conditions: in vivo
[14] = Toxicity in BALB/c nude mouse xenografted with human HT-1080 cells assessed as change in body weight at 0.3 to 3 mg/kg administered twice a day for 14 days; format: organism-based; conditions: in vivo, 336 h, dose 0.3-3 mg/kg, time 14 day
[15] = target: T1, Eukaryotic translation initiation factor 2-alpha kinase 3; assay: Inhibition of PEK in human MOLM16 cells; format: cell-based
[16] = target: Phosphatidylinositol 4-phosphate 3-kinase C2 domain-containing subunit beta (Homo sapiens, UniProt O00750); assay: Inhibition of PIK3C2B in human MOLM16 cells; format: cell-based
Cytochrome P450 3A4 = Cytochrome P450 3A4 (Homo sapiens, UniProt P08684); assay: Inhibition of CYP3A4 in human liver microsomes using midazolam substrate incubated for 5 mins in presence of NADPH by UPLC-MS/MS analysis
[17] = Unbound AUC in BALB/c mouse at 3 mg/kg, po measured upto 24 hrs; format: ADME, organism-based; conditions: in vivo
[18] = Half-life in Sprague-Dawley rat at 1 mg/kg, iv measured upto 24 hrs; format: ADME, organism-based; conditions: in vivo
[19] = Antitumor activity against human MOLM16 cells xenografted in BALB/c nude mouse assessed as tumor growth inhibition at 0.3 mg/kg administered twice a day for 17 days; format: functional, MOLM-16; conditions: MOLM16, 408 h, time 17 day, read-out: TGI
HT-1080 [20] = assay: Antitumor activity against human HT-1080 cells xenografted in BALB/c nude mouse assessed as mean tumor growth inhibition at 0.3 mg/kg administered twice a day for 14 days; format: functional; conditions: HT-1080, 336 h, time 14 day, read-out: TGI
[21] = Unbound volume of distribution at steady state in BALB/c mouse at 3 mg/kg, po and 1 mg/kg, iv measured upto 24 hrs; format: ADME, organism-based; conditions: in vivo
[22] = Unbound Cmax in Sprague-Dawley rat at 3 mg/kg, po measured upto 24 hrs; format: ADME, organism-based; conditions: in vivo
[23] = Protein binding in HEK293 cells assessed as free fraction; format: ADME, cell-based; conditions: human
[24] = Intrinsic clearance in rat hepatocytes assessed per 10^4 cells at 1 uM measured upto 120 mins by UPLC-MS/MS analysis; format: ADME, cell-based, Hepatocyte; conditions: 2 h
[25] = Antitumor activity against human MOLM16 cells xenografted in BALB/c nude mouse assessed as tumor growth inhibition at 3 mg/kg administered twice a day for 17 days; format: functional, MOLM-16; conditions: MOLM16, 408 h, time 17 day, read-out: TGI

Sequence of Mitogen-activated protein kinase kinase kinase 20 (Q9NYL2 whole entry): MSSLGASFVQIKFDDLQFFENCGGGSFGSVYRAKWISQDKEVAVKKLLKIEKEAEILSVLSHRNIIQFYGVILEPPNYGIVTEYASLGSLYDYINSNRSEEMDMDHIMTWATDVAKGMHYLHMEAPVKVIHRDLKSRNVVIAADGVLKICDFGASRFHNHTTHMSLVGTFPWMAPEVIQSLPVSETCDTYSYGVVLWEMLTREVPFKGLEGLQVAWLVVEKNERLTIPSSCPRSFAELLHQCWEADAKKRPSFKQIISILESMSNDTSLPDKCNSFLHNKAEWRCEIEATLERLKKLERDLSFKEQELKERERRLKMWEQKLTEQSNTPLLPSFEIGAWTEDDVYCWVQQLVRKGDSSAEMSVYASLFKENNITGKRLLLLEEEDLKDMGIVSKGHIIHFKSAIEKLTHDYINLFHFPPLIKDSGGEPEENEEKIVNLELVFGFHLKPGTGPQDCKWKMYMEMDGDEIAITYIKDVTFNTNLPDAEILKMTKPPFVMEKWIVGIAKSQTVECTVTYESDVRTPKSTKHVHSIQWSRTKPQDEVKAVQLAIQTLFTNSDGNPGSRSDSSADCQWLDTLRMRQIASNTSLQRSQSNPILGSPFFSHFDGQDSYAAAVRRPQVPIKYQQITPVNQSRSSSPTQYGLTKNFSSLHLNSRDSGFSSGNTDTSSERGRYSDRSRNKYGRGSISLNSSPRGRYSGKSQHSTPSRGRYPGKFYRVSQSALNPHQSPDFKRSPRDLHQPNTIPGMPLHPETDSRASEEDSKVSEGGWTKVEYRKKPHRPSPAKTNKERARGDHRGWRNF
Sequence of Receptor-interacting serine/threonine-protein kinase 3 (Q9Y572 whole entry): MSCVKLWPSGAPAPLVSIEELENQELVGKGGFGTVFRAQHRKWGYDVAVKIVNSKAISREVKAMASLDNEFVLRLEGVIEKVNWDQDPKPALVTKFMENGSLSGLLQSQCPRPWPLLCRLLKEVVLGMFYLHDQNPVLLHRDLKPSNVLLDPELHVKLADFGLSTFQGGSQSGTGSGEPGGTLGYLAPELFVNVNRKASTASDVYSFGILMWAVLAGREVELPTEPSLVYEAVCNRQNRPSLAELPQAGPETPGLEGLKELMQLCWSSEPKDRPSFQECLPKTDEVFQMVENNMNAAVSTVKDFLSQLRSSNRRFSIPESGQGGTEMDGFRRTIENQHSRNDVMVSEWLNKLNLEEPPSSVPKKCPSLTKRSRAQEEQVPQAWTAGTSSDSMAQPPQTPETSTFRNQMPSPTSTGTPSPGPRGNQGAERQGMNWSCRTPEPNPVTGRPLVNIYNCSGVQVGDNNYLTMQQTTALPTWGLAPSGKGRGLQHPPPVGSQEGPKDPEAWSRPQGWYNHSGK
Sequence of Cytochrome P450 3A4 (P08684 whole entry): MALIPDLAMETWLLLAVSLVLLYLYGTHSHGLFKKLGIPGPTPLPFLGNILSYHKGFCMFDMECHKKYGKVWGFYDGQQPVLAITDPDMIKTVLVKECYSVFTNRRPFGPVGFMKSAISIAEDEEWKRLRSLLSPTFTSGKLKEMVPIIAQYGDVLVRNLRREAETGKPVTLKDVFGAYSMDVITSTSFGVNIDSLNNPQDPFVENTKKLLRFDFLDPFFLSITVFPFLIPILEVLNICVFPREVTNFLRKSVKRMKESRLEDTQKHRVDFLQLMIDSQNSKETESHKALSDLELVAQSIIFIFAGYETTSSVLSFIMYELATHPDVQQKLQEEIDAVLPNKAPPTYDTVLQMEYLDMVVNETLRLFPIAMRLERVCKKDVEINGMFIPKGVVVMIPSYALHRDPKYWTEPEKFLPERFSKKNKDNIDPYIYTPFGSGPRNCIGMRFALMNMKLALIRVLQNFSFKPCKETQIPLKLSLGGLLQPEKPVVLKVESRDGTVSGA
Sequence of Phosphatidylinositol 4-phosphate 3-kinase C2 domain-containing subunit beta (O00750 whole entry, the tested form may be a part): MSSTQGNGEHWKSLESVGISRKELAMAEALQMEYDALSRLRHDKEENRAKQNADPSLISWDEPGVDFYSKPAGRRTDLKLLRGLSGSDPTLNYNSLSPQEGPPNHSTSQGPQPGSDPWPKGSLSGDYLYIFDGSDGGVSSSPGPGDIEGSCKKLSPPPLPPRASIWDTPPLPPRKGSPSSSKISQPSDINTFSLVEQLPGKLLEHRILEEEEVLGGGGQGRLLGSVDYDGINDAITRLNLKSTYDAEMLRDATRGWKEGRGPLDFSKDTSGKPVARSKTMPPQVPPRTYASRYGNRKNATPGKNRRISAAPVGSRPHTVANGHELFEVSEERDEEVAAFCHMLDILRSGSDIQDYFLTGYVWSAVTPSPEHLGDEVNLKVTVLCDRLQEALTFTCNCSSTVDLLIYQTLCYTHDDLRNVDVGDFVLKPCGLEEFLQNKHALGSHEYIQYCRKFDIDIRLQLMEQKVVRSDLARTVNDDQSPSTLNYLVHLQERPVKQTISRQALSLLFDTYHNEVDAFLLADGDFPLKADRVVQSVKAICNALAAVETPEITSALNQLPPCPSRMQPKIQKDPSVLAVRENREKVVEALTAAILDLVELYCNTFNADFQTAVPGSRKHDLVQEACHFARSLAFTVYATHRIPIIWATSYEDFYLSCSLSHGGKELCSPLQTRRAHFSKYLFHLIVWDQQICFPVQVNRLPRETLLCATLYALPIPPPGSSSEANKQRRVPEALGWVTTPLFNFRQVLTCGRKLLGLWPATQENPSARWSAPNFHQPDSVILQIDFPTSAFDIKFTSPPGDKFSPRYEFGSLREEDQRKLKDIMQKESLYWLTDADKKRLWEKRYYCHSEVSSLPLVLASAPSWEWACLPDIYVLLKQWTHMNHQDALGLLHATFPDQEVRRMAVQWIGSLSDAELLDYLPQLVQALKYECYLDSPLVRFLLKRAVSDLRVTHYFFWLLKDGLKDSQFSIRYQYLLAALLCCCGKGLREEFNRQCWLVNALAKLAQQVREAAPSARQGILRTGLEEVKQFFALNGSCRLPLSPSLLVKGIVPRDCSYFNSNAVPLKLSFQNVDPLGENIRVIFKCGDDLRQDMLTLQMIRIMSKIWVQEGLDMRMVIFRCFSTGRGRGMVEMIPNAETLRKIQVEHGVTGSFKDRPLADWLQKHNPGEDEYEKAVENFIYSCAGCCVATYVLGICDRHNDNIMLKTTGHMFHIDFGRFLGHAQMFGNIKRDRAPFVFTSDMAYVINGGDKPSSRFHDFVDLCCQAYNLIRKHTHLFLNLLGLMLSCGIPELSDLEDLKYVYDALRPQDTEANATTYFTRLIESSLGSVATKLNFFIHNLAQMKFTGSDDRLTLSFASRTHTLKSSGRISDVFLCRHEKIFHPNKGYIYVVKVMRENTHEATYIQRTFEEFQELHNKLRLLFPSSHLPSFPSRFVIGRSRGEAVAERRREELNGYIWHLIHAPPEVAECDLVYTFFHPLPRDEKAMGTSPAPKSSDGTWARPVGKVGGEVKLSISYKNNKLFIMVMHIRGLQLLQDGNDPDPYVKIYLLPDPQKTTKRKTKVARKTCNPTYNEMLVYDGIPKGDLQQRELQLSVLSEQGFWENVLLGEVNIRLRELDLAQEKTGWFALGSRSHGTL

solubility thermodynamic at 24 h (physchem): 1.8 µM (≈ 0.916 µg/mL) | fraction unbound at 24 h [1]: 0.002 | F [2]: 66% | IC50 [4]: 9 µM | EC50 [5]: 6.9 µM | Cmax [6]: 10.1 µM | fVdss [7]: 130 L/kg | Papp A→B at 2 h, 5 µM [8]: 9.7 ×10⁻⁶ cm/s | half-life [9]: 10 h | Vdss [10]: 0.12 L/kg | IC50 [12]: 0.047 µM | CL free [13]: 70 mL/min/kg | IC50 [15]: 5.2 µM | IC50 [16]: 3.4 µM | IC50 (Cytochrome P450 3A4): 33 µM | fAUC [17]: 0.13 µM·h | half-life [18]: 6.3 h | fVdss [21]: 60 L/kg | fCmax [22]: 7.1 nM | fraction unbound [23]: 0.35 | CLH [24]: 3.5 µL/min
SMILES: CNC(=O)c1ncn2cc(-c3c(F)ccc(NS(=O)(=O)c4cc(Cl)cnc4OC)c3F)ncc12
Activity [3]: Non-Toxic | inhibition in vivo at 3 mg/kg (HT-1080 [11]): 84% | Activity [14]: Non-Toxic | inhibition in vivo at 0.3 mg/kg [19]: 66% | inhibition in vivo at 0.3 mg/kg (HT-1080 [20]): 18% | inhibition in vivo at 3 mg/kg [25]: 98%

Reference: ChEMBL document CHEMBL5543122, “Discovery of HC-7366: An Orally Bioavailable and Efficacious GCN2 Kinase Activator” (J Med Chem, 2024)
